From paper PMC10397409, “The action of physiological and synthetic steroids on the calcium channel CatSper in human sperm” (Frontiers in Cell and Developmental Biology, 2023)
Where two headings read alike, the source gives them in different places.

How the values were obtained:
[1] = system: human sperm; experiment: Acrosome reaction in live human sperm (PSA-FITC flow cytometry); type: cell-based; details: 45 min; for cells with induced acrosome reaction: steroid 10 µM, capacitated sperm, increase not significant
Method: The evaluation of acrosome reaction in live human sperm cells was performed using a modified version of a previously described method ([Zoppino et al., 2012]). Briefly, swim-up recovered motile spermatozoa were allowed to capacitate for 4 h at 37°C in capacitating media (HTF+) containing: 93.8 mM NaCl, 4.7 mM KCl, 0.2 mM MgSO4, 0.369 mM KH2PO4, 2.04 mM CaCl2, 20.98 mM HEPES, 2.78 mM glucose, 21.4 mM Na-lactate, 25 mM NaHCO3, 6.6 µM Na-pyruvate, and the pH was adjusted to 7.35. Capacitated sperm were then incubated for 30 min with 5 μg/mL Pisum sativum agglutinin conjugated with fluorescein isothiocyanate (PSA-FITC) and 10 μg/mL Hoechst-33342. Samples were centrifuged at 700 x g for 10 min at room temperature to remove excess dye and resuspended in HTF+. Sperm were then incubated for 45 min in the absence (DMSO) or presence of the steroids at 10 μM, or positive control P4 at 10 µM. The ionophore A23187 was also used as a positive control and incubated with sperm at 2 µM for 30 min only. PI (0.5 μg/mL) was then added to all samples which were analyzed using BDFACSAria. FITC-PSA fluorescence was detected by excitation at 475 nm and emission at 560/35 nm, PI was detected by excitation at 530 nm and emission at 675/75 nm and Hoechst was detected by excitation at 346 nm and emission at 460 nm. Hoechst-positive and PI-negative cells were classified as live cells. Doublet exclusion was performed by two-dimensional dot plot analysis of forward-scatter width (FSC-W) versus forward-scatter height (FSC-H), and side-scatter width (SSC-W) versus side-scatter height (SSC-H) on the pre-selected singlets. Data were collected from 40,000 […] per sample to define the sperm population. Based on the selected population, PI-negative and PSA-FITC-positive cells were selected as live acrosome reacted cells, whereas PI-negative and PSA-FITC-negative cells were selected as live acrosome intact cells.

[2] = target: T1, CatSper (Homo sapiens, UniProt Q7RTX7+Q86XQ3+Q8NEC5+Q96P56); experiment: Inhibition of PGE1-induced Ca2+ influx in human sperm (screen 2 inhibitors); type: cell-based
T1 construct: Motile spermatozoa were selected by a ‘swim-up’ procedure; endogenous in cells; host or cells: motile human spermatozoa (swim-up) from healthy donors
Method: Briefly, motile spermatozoa were selected by swim-up and labeled with the fluorescent calcium indicator Fluo-4 a.m. to image changes in [Ca^2+]i. After centrifugation to remove excess dye, Fluo-4 AM loaded cells were distributed in a 384-wells plate to obtain ∼125,000 cells/well. After measuring basal fluorescence, a first injection of compounds was performed in order to evaluate their effect on [Ca^2+]i alone. This first screen is therefore considered as a screen to search for ‘activators’. Fluorescence was recorded for 12 min during which sperm cells were continuously exposed to compounds. P4 or PGE1 were then added in the same wells to evaluate whether the tested compounds can reduce the ligand-induced activation of CatSper. This second screen was therefore considered to be a search for CatSper ‘inhibitors’.
Human semen samples were collected from healthy donors by masturbation after a recommended sexual abstinence period of minimum 2 days. Semen samples were allowed to liquefy at 37°C for 15–30 min. Motile spermatozoa were selected by a ‘swim-up’ procedure as previously described ([Strünker et al., 2011]). Briefly, 1 mL of semen was deposited in a 45°-inclined 50 mL Falcon tube with 4 mL of Human Tubular Fluid (HTF) medium containing: 93.8 mM NaCl, 4.7 mM KCl, 0.2 mM MgSO4, 0.37 mM KH2PO4, 2.04 mM CaCl2, 20.98 mM HEPES, 2.78 mM glucose, 21.4 mM Na-lactate, 4 mM NaHCO3, 0.33 mM Na-pyruvate, and the pH was adjusted to 7.35. Motile sperm were allowed to swim at 37°C for 1 hour. The supernatant was collected in 15 mL Falcon tubes and washed twice by centrifugation at 700 x g for 20 min. Sperm were supplemented with 3 mg/mL HSA. Written informed consent was obtained from all donors prior to donation and approved by the Cantonal Ethics Committee of the State of Geneva (CCER #14-147).
Cells were loaded with the fluorescent Ca^2+ indicator Fluo-4 AM at a final concentration of 2.5 µM for 30 min at 37°C. Excess dye was washed via centrifugation at 700 x g for 20 min and sperm were resuspended in HTF medium to obtain a final concentration of 6.25 x 10^6 cells/mL. 20 μL of cells (corresponding to ∼125,000 cells) loaded with Fluo-4 a.m. were dispensed in a 384-wells plate (Corning, NY, United States) to allow fluorescence measurement. The dye was excited at 480 nm, and emission was recorded at 530 nm. The change in [Ca^2+]i was assessed simultaneously in all wells using a Functional Drug Screening System (FDSS/μCELL) (Hamamatsu Phototonics K.K., Yokohama, Japan) at 37°C. Basal fluorescence was first measured for 30 s. […] P4 and PGE1 were tested at a near-saturating concentration in the HTS in order to evaluate a potential additive or synergistic effect induced by the compounds. Non-specific CatSper inhibitor MDL 12330A was used as a negative control at final concentration of 20 µM while DMSO was used as a vehicle control. For alkalization-induced Ca^2+ measurement, NH4Cl was used as a positive control at a final concentration of 10 mM. Fluorescence was recorded for a total of 16.5 min: 30 s before injection, 12 min after the first injection of the tested compounds, and 4 min after the second injection of either P4 or PGE1. The Prestwick library was tested in technical duplicate. Ca^2+ response curves were normalized using the following formula F−F0/F0×100 , where F 0 is the average of the basal fluorescence prior to the addition of the compound of interest and F corresponds to the fluorescence value at each time point. The ∆F/F0 of the vehicle control (DMSO) was subtracted from all the other values to adjust for dilution and pipetting artifacts. The values of all compounds were normalized to their respective controls.

[3] = ref Löfgren and Bäckström (1990), cited from earlier work
[4] = target: T1, CatSper; experiment: Cross-desensitization: P4 dose-response after pre-incubation with steroid at 10 µM; type: cell-based; details: in the presence of predicted steroid at 10 µM, normalized to DMSO; P4 = control curve; n = 3; read-out: EC50 generated from concentration-response curves of P4-induced [Ca2+]i influx

Structure (SMILES): CC(=O)[C@H]1CC[C@H]2[C@@H]3CC=C4C[C@@H](O)CC[C@]4(C)[C@H]3CC[C@]12C [Pregnenolone]
- cells with induced acrosome reaction [1]: more than 10%
- IC50 [2]: 11 nM

Structure (SMILES): CC(=O)[C@H]1CC[C@H]2[C@@H]3CCC4=CC(=O)CC[C@]4(C)[C@H]3CC[C@]12C [Progesterone]
- Maximum serum level ([3]; female): 60 nM (female)
- Maximum serum level ([3]; male): 3 nM (male)
- EC50 [4]: 5 nM
- effect on acrosome reaction (AR) ([1]; steroids 10 µM, P4 10 µM): only slightly increased the AR

Structure (SMILES): C[C@]12CC[C@H](O)C[C@@H]1CC[C@@H]1[C@@H]2CC[C@]2(C)C(=O)CC[C@@H]12 [Epiandrosterone]
- cells with induced acrosome reaction [1]: more than 10%

Structure (SMILES): C[C@]12Cc3c[nH]nc3C[C@@H]1CC[C@@H]1[C@@H]2CC[C@@]2(C)[C@H]1CC[C@]2(C)O [Stanozolol]
- cells with induced acrosome reaction [1]: more than 10%
- IC50 [2]: 117 nM
